# Measured values published in patent US10131707B2, “Treatment of sepsis and septic shock” (THE GENERAL HOSPITAL CORPORATION, priority 2014, dated 2018).
# “Also recorded” adds a separate entry of the source. Read-outs that look alike come from different tables or passages of the source.
# Assays:
# Cit H3 = assay: Production of Cit H3 after inhibition of PAD activity (data not shown)
# [1] = tested on: collagen-induced arthritis; conditions: murine; cited from earlier work
# [2] = tested on: mouse model of CLP-induced septic shock; assay: Survival in CLP-induced sepsis model, inhibitors given intraperitoneally; type: in vivo, male C57BL/6J mice; conditions: for Survival (in words): i.p. 1 h after CLP, SAHA 50 mg/kg, Cl-amidine 80 mg/kg, up to 10 days, compared with DMSO vehicle
# Procedure: Three experiments were carried out. In experiment I, HL-60 neutrophilic cells grown on a coverslip were treated with LPS (100 ng/ml) in the presence or absence of SAHA (5 […]]) for 3 h, and subjected to immuno-staining with anti-Cit H3 antibody to assess effect of SAHA on Cit H3 production under a fluorescence microscope. The ratio of Cit H3 positive cells was calculated as mean±SD (n=3). In experiment II, male C57BL/6J mice were subjected to CLP, and 1 hour later randomly divided into three groups for intraperitoneal injection as follows: (1) dimethyl sulfoxide (DMSO), (2) SAHA (50 mg/kg) in DMSO, and ([…]). In a separate experiment III, the male C57BL/6J mice were divided into control and treatment groups, and subjected to CLP. One hour later, immunoglobulin (IgG) and Cit H3 antibody (20 mg/kg iv; n=5/group) were injected into the control and treatment groups, respectively. All survival was monitored for 5-10 days.
# Animals. Male C57B1/6J mice (6-8 weeks) weighing 25-30 g were purchased from Jackson Labs (Bar Harbor, Me.). All animals were housed in plastic cages and had access to chow and water throughout the experiment. They were kept at room temperature (24±2° C.) and exposed to alternative cycles of 12 h light and darkness. During the experiments the animals were monitored up to 10 days, and survival rate was compared between the experimental and control groups.
# CLP-induced sepsis model. The CLP murine model,^15 modified as described previously, was used to induce fecal peritonitis.^16 In brief, peritoneal cavity was opened under inhaled isoflurane anesthesia. […]
# Administration of inhibitors and experimental design. […] Mortality was recorded for up to 10 days post procedure.
# Statistical analysis. Statistical differences were determined by Student t tests and ANOVA for two group and multiple group comparisons respectively (SPSS™ statistical software package, Chicago, Ill.). Kaplan-Meier survival curves were analyzed by using the MedCalc™ Statistical Software (Mariakerke, Belgium) for the in vivo studies. […]
# [3] = tested on: mouse model of CLP-induced septic shock; conditions: literature reference 10; cited from earlier work
# LPS-induced shock = conditions: rodent; cited from earlier work
# HL-60 neutrophilic cells = assay: LPS-induced Cit H3 production and NETs formation in HL-60 cells, immunostaining with anti-Cit H3 antibody; type: cell-based; conditions: LPS 100 ng/ml, 3 h
# Procedure: Three experiments were carried out. In experiment I, HL-60 neutrophilic cells grown on a coverslip were treated with LPS (100 ng/ml) in the presence or absence of SAHA (5 […]]) for 3 h, and subjected to immuno-staining with anti-Cit H3 antibody to assess effect of SAHA on Cit H3 production under a fluorescence microscope. The ratio of Cit H3 positive cells was calculated as mean±SD (n=3). In experiment II, male C57BL/6J mice were subjected to CLP, and 1 hour later randomly divided into three groups for intraperitoneal injection as follows: (1) dimethyl sulfoxide (DMSO), (2) SAHA (50 mg/kg) in DMSO, and (3) Cl-amidine ([…]) in DMSO (n=10/group). In a separate experiment III, the male C57BL/6J mice were divided into control and treatment groups, and subjected to CLP. One hour later, immunoglobulin (IgG) and Cit H3 antibody (20 mg/kg iv; n=5/group) were injected into the control and treatment groups, respectively. All survival was monitored for 5-10 days.
# Cell culture and treatment. HL-60 cells obtained from American Type Culture Collection (ATCC) were maintained in Iscove's modified DMEM medium (Invitrogen Life Technologies, Carlsbad, Calif.) supplemented with 20% fetal bovine serum (FBS). […] The ratio of Cit H3 positive stained cells to all cells was counted and calculated as mean±SD from three individual experiments.
SMILES,Production of Cit H3 (Cit H3),Severity of collagen-induced arthritis [1],"Survival ([2]; 80 mg/kg i.p. 1 h after CLP, monitored 10 days, n=10, DMSO vehicle 0%)",Survival (in words) [2],Survival [3],Survival (LPS-induced shock),"LPS-induced Cit H3 production (ratio of Cit H3 positive cells to all cells) (HL-60 neutrophilic cells; ATRA-differentiated HL-60 cells, with or without SAHA, n=3, P<0.05)",NETs formation after LPS insult (HL-60 neutrophilic cells; HL-60 neutrophilic cells)
NC(=O)[C@H](CCCN=C(N)CCl)NC(=O)c1ccccc1 [Cl-amidine],reduce the production of Cit H3,reduce the severity,42.5%,notably improved long term survival; also recorded: significantly improved survival,,,,
"O=C(CCCCCCC(=O)Nc1ccccc1)NO [SAHA, suberoylanilide hydroxamic acid]",,,,notably improved long term survival,improves survival,significantly improves survival,inhibited H3 citrullination significantly; also recorded: suppresses LPS-induced Cit H3 production,significantly inhibited
